According to the supplement of paper PMC4862054:

How the values were obtained:
Conditions in all cases: incubation time: 72 h
CAL-85-1 [1] = assay: drug sensitivity score (DSS), CellTox Green (DSS (AUC-based score)); higher = stronger drug effect (viability inhibition or cytotoxicity); extreme values may be limits of the assay
Method in brief: (§1)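 In 384-well plates, compound was laid out at 5 concentrations in 10-fold steps over a 10,000-fold range specific to each compound, and breast cancer cell lines were seeded on top in 20 µl suspension for a 72 h incubation. CellTox Green fluorescence and then CellTiter-Glo luminescence were read, and each plate was normalised to 0.1 % DMSO and a positive kill control. The drug sensitivity score was calculated from the area under the fitted dose-response curve.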

Hs578T [2] = assay: as above
Method in brief: as §1

HCC1599 [3] = assay: as above
Method in brief: as §1

MDA-MB-231 = assay: as above
Method in brief: as §1

MDA-MB-453 [4] = assay: as above
Method in brief: as §1

MFM-223 [5] = assay: as above
Method in brief: as §1

BT-474 = assay: as above
Method in brief: as §1

HDQ-P1 [6] = assay: as above
Method in brief: as §1

HCC1143 [7] = assay: as above
Method in brief: as §1

MCF-10A = assay: as above
Method in brief: as §1

MDA-MB-436 [8] = assay: as above
Method in brief: as §1

CAL-148 [9] = assay: as above
Method in brief: as §1

CAL-85-1 [10] = assay: drug sensitivity score (DSS), CellTiter-Blue viability (DSS (AUC-based score)); higher = stronger viability inhibition; extreme values may be limits of the assay
Method: (§2)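 DSRT with the CellTiter-Blue (resazurin reduction) viability readout, fluorescence 560/590 nm, 72 h incubation. Plates were normalised to DMSO and benzethonium chloride controls. DSS is computed from the area under the fitted dose-response curve (5 or 9 concentrations).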

Hs578T [11] = assay: as above
Method: as §2

HCC1599 [12] = assay: as above
Method: as §2

BT-549 = assay: as above
Method: as §2

MDA-MB-453 [13] = assay: as above
Method: as §2

MFM-223 [14] = assay: as above
Method: as §2

CAL-120 = assay: as above
Method: as §2

HDQ-P1 [15] = assay: as above
Method: as §2

HCC1143 [16] = assay: as above
Method: as §2

CAL-51 = assay: as above
Method: as §2

DU-4475 = assay: as above
Method: as §2

MDA-MB-436 [17] = assay: as above
Method: as §2

CAL-148 [18] = assay: as above
Method: as §2

HCC1937 = assay: as above
Method: as §2

`NC(=O)Nc1cc(-c2cccc(F)c2)sc1C(=O)N[C@H]1CCCNC1` [AZD7762] gave a drug sensitivity score (CAL-85-1 [1]) of 12.9, a drug sensitivity score (Hs578T [2]) of 17.4 and a drug sensitivity score (HCC1599 [3]) of 0. For the same molecule, the drug sensitivity score (MDA-MB-231) was 0.946, the drug sensitivity score (MDA-MB-453 [4]) was 0 and the drug sensitivity score (MFM-223 [5]) was 0. For the same molecule, the drug sensitivity score (BT-474) was 0, the drug sensitivity score (HDQ-P1 [6]) was 0 and the drug sensitivity score (HCC1143 [7]) was 0. For the same molecule, the drug sensitivity score (MCF-10A) was 0, the drug sensitivity score (MDA-MB-436 [8]) was 0 and the drug sensitivity score (CAL-148 [9]) was 0.

In the case of `CC(C)Cn1cnc2c(N)nc3ccccc3c21` [Imiquimod], the drug sensitivity score (CAL-85-1 [1]) is reported as 1.01, the drug sensitivity score (HCC1599 [3]) is reported as 0 and the drug sensitivity score (MDA-MB-231) is reported as 0. For the same molecule, the drug sensitivity score (MDA-MB-453 [4]) was 0, the drug sensitivity score (MFM-223 [5]) was 0 and the drug sensitivity score (BT-474) was 0. The drug sensitivity score (HDQ-P1 [6]) was 1.63, the drug sensitivity score (HCC1143 [7]) was 0 and the drug sensitivity score (MCF-10A) was 0. The drug sensitivity score (MDA-MB-436 [8]) was 0, the drug sensitivity score (CAL-148 [9]) was 0 and the drug sensitivity score (CAL-85-1 [10]) was 0. It also gave a drug sensitivity score (Hs578T [11]) of 0, a drug sensitivity score (HCC1599 [12]) of 0 and a drug sensitivity score (BT-549) of 0. It also gave a drug sensitivity score (MDA-MB-453 [13]) of 0.443, a drug sensitivity score (MFM-223 [14]) of 0 and a drug sensitivity score (CAL-120) of 0. For the same molecule, the drug sensitivity score (HDQ-P1 [15]) was 0, the drug sensitivity score (HCC1143 [16]) was 0 and the drug sensitivity score (CAL-51) was 0. It also gave a drug sensitivity score (DU-4475) of 0, a drug sensitivity score (MDA-MB-436 [17]) of 0 and a drug sensitivity score (CAL-148 [18]) of 0. The drug sensitivity score (HCC1937) was 0.

In the case of `Cc1ccc(C(=O)N(CCCN)[C@@H](c2oc3cc(Cl)ccc3c(=O)c2Cc2ccccc2)C(C)C)cc1`, the drug sensitivity score (CAL-85-1 [1]) is reported as 0, the drug sensitivity score (Hs578T [2]) is reported as 2.03 and the drug sensitivity score (HCC1599 [3]) is reported as 0. It also gave a drug sensitivity score (MDA-MB-231) of 0, a drug sensitivity score (MDA-MB-453 [4]) of 0 and a drug sensitivity score (MFM-223 [5]) of 0. For the same molecule, the drug sensitivity score (BT-474) was 0, the drug sensitivity score (HCC1143 [7]) was 0 and the drug sensitivity score (MCF-10A) was 0. For the same molecule, the drug sensitivity score (MDA-MB-436 [8]) was 0, the drug sensitivity score (CAL-148 [9]) was 0 and the drug sensitivity score (CAL-85-1 [10]) was 19.9. It also gave a drug sensitivity score (Hs578T [11]) of 25.7, a drug sensitivity score (HCC1599 [12]) of 0 and a drug sensitivity score (BT-549) of 24.4. The drug sensitivity score (MDA-MB-453 [13]) was 21.5, the drug sensitivity score (MFM-223 [14]) was 18.1 and the drug sensitivity score (CAL-120) was 27.6. For the same molecule, the drug sensitivity score (HDQ-P1 [15]) was 10.1, the drug sensitivity score (HCC1143 [16]) was 19.5 and the drug sensitivity score (CAL-51) was 20.1. It also gave a drug sensitivity score (DU-4475) of 20.2, a drug sensitivity score (MDA-MB-436 [17]) of 13.4 and a drug sensitivity score (CAL-148 [18]) of 23.3. It also gave a drug sensitivity score (HCC1937) of 29.8.

`C=C(c1ccc(C(=O)O)cc1)c1cc2c(cc1C)C(C)(C)CCC2(C)C` [Bexarotene] gave a drug sensitivity score (CAL-85-1 [1]) of 0, a drug sensitivity score (HCC1599 [3]) of 0 and a drug sensitivity score (MDA-MB-231) of 0. It also gave a drug sensitivity score (MDA-MB-453 [4]) of 0, a drug sensitivity score (MFM-223 [5]) of 0 and a drug sensitivity score (BT-474) of 0. It also gave a drug sensitivity score (HDQ-P1 [6]) of 0, a drug sensitivity score (HCC1143 [7]) of 0 and a drug sensitivity score (MCF-10A) of 0. For the same molecule, the drug sensitivity score (MDA-MB-436 [8]) was 0, the drug sensitivity score (CAL-148 [9]) was 0 and the drug sensitivity score (CAL-85-1 [10]) was 0. It also gave a drug sensitivity score (Hs578T [11]) of 0, a drug sensitivity score (HCC1599 [12]) of 0 and a drug sensitivity score (BT-549) of 0. The drug sensitivity score (MDA-MB-453 [13]) was 0, the drug sensitivity score (MFM-223 [14]) was 0 and the drug sensitivity score (CAL-120) was 0. The drug sensitivity score (HDQ-P1 [15]) was 0, the drug sensitivity score (HCC1143 [16]) was 0 and the drug sensitivity score (CAL-51) was 0. The drug sensitivity score (DU-4475) was 0, the drug sensitivity score (MDA-MB-436 [17]) was 0 and the drug sensitivity score (CAL-148 [18]) was 1.2. It also gave a drug sensitivity score (HCC1937) of 2.11.

`O=C(CCCCCCC(=O)Nc1ccc([C@H]2O[C@@H](CSc3nc(-c4ccccc4)c(-c4ccccc4)o3)C[C@@H](c3ccc(CO)cc3)O2)cc1)NO` [Tubacin] showed a drug sensitivity score (CAL-85-1 [1]) of 5.67, a drug sensitivity score (Hs578T [2]) of 0.503 and a drug sensitivity score (HCC1599 [3]) of 0. The drug sensitivity score (MDA-MB-231) was 7.97, the drug sensitivity score (MDA-MB-453 [4]) was 1.38 and the drug sensitivity score (MFM-223 [5]) was 0. It also gave a drug sensitivity score (BT-474) of 1.77, a drug sensitivity score (HDQ-P1 [6]) of 0 and a drug sensitivity score (HCC1143 [7]) of 2.07. The drug sensitivity score (MCF-10A) was 0, the drug sensitivity score (MDA-MB-436 [8]) was 0 and the drug sensitivity score (CAL-148 [9]) was 0.

Molecule `C[C@@H](Oc1cc(-c2cnn(C3CCNCC3)c2)cnc1N)c1c(Cl)ccc(F)c1Cl` [Crizotinib] has a drug sensitivity score (CAL-85-1 [1]) of 0, a drug sensitivity score (Hs578T [2]) of 0 and a drug sensitivity score (HCC1599 [3]) of 0. It also gave a drug sensitivity score (MDA-MB-231) of 0, a drug sensitivity score (MDA-MB-453 [4]) of 0 and a drug sensitivity score (MFM-223 [5]) of 0. It also gave a drug sensitivity score (BT-474) of 0, a drug sensitivity score (HDQ-P1 [6]) of 0.784 and a drug sensitivity score (HCC1143 [7]) of 0. The drug sensitivity score (MCF-10A) was 0, the drug sensitivity score (CAL-148 [9]) was 0 and the drug sensitivity score (CAL-85-1 [10]) was 3.39. It also gave a drug sensitivity score (Hs578T [11]) of 1.65, a drug sensitivity score (HCC1599 [12]) of 0 and a drug sensitivity score (BT-549) of 1.89. For the same molecule, the drug sensitivity score (MDA-MB-453 [13]) was 8.6, the drug sensitivity score (MFM-223 [14]) was 4.74 and the drug sensitivity score (CAL-120) was 6.42. The drug sensitivity score (HDQ-P1 [15]) was 1.42, the drug sensitivity score (HCC1143 [16]) was 2.03 and the drug sensitivity score (CAL-51) was 4.08. For the same molecule, the drug sensitivity score (DU-4475) was 3.43, the drug sensitivity score (MDA-MB-436 [17]) was 14.8 and the drug sensitivity score (CAL-148 [18]) was 2.67. For the same molecule, the drug sensitivity score (HCC1937) was 6.92.

In the case of `O=C(O)c1ccc(-c2c[nH]c3ncc(-c4ccccc4)cc23)cc1C1CCCC1`, the drug sensitivity score (CAL-85-1 [1]) is reported as 0, the drug sensitivity score (Hs578T [2]) is reported as 0 and the drug sensitivity score (HCC1599 [3]) is reported as 0. For the same molecule, the drug sensitivity score (MDA-MB-231) was 0, the drug sensitivity score (MDA-MB-453 [4]) was 0 and the drug sensitivity score (MFM-223 [5]) was 1.51. The drug sensitivity score (BT-474) was 0, the drug sensitivity score (HDQ-P1 [6]) was 0 and the drug sensitivity score (HCC1143 [7]) was 0. The drug sensitivity score (MCF-10A) was 0, the drug sensitivity score (MDA-MB-436 [8]) was 0 and the drug sensitivity score (CAL-148 [9]) was 0.

`CC(=O)Nc1ccc(C(=O)Nc2ccccc2N)cc1` [CI-994] was tested, and the drug sensitivity score (CAL-85-1 [10]) was 0, the drug sensitivity score (Hs578T [11]) was 0 and the drug sensitivity score (HCC1599 [12]) was 0. It also gave a drug sensitivity score (BT-549) of 0, a drug sensitivity score (MDA-MB-453 [13]) of 0 and a drug sensitivity score (MFM-223 [14]) of 0. The drug sensitivity score (CAL-120) was 0, the drug sensitivity score (HDQ-P1 [15]) was 0 and the drug sensitivity score (HCC1143 [16]) was 0. It also gave a drug sensitivity score (CAL-51) of 0, a drug sensitivity score (DU-4475) of 0 and a drug sensitivity score (MDA-MB-436 [17]) of 0. The drug sensitivity score (CAL-148 [18]) was 0 and the drug sensitivity score (HCC1937) was 0.

`NC(=O)Nc1cc(-c2cccc(F)c2)sc1C(=O)N[C@H]1CCCNC1` [AZD 7762] showed a drug sensitivity score (CAL-85-1 [10]) of 6.01, a drug sensitivity score (Hs578T [11]) of 5.73 and a drug sensitivity score (HCC1599 [12]) of 5.69. For the same molecule, the drug sensitivity score (BT-549) was 1.54, the drug sensitivity score (MDA-MB-453 [13]) was 5.94 and the drug sensitivity score (MFM-223 [14]) was 0. It also gave a drug sensitivity score (CAL-120) of 2.17, a drug sensitivity score (HDQ-P1 [15]) of 3.34 and a drug sensitivity score (HCC1143 [16]) of 1.6. For the same molecule, the drug sensitivity score (CAL-51) was 2.84, the drug sensitivity score (DU-4475) was 2.46 and the drug sensitivity score (MDA-MB-436 [17]) was 5.44. It also gave a drug sensitivity score (CAL-148 [18]) of 2.2 and a drug sensitivity score (HCC1937) of 2.04.
